The record followed here is patent US8653264B2, “Crystal of erlotinib base and the preparation method thereof” (Zhejiang Huahai Pharmaceutical Co., Ltd., priority 2010, dated 2014).

The nature of data set [1]: stability experiment. In kind it is physicochemical. Particulars: crystal form IV of erlotinib base; conditions not given.
Data set [2] is described as follows: hygroscopicity experiment. It counts as physicochemical. Conditions: crystal form IV of erlotinib base; conditions not given.

Turning to `C#Cc1cccc(Nc2ncnc3cc(OCCOC)c(OCCOC)cc23)c1` [Form IV, N-(3-ethynylphenyl)-6,7-bis(2-methoxyethoxy)quinazolin-4-amine], the “change in the stability experiment” value in data set [1] was “did not significantly change”. Also, the “change in the hygroscopicity experiment” value in data set [2] is recorded as “did not significantly change”.
